Columns and labels:
trypsin [1] = target: T1, trypsin (Bos taurus, UniProt P00760); assay: Trypsin enzymatic assay; format: biochemical
T1 construct: gene PRSS1
T1 sequence (P00760 24-246): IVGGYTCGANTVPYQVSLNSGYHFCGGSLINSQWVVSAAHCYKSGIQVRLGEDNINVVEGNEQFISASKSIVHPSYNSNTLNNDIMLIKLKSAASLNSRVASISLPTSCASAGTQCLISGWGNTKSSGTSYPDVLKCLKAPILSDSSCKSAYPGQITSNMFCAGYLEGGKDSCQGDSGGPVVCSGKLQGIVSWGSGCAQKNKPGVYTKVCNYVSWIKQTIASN
Experimental: Assays were done as described earlier with slight modification. Briefly, normalized proteolytic activity of trypsin (2.3 pM) toward tosyl-GPR-AMC substrate (5 μM) was measured for 2 h after pre-incubation of the peptides with protease for 1 h at room temperature. The data were plotted and fitted using KaleidaGraph v3.6 software. Apparent […] (Ki^app) was determined from at least three independent measurements.

[2] = SGF with pepsin, pH 1.2, 37 °C, peptide 0.3 mg/ml, after several days; LC/MS, A214nm peak area vs internal standard
Experimental: Peptides were incubated at a concentration of 0.3 mg/ml in simulated gastric fluid at 37 °C for the indicated times. To prepare simulated gastric fluid, 2 g of sodium chloride, 43 mg of sodium thaurocholate, 16 mg of lecithin and 100 mg of pepsin were dissolved in 1 L of Milli-Q water (18.2 MΩ.cm^−1) and adjusted to pH 1.2 with 37% hydrochloric acid. At the indicated time points, 10 μl (3 μg) aliquots were removed from the reaction, quenched with 0.25 M NaOH and then mixed with 2.6 μg of the internal standard. Samples were immediately analyzed by analytical LC/MS (Agilent 1200 series) and the area under the A214nm peak was quantified.

trypsin [3] = target: trypsin (UniProt P00760); assay: enzyme inhibition assay (trypsin proteolytic activity on a fluorogenic substrate); apparent; trypsin 2.3 pM, tosyl-GPR-AMC substrate 5 uM, activity measured for 2 h after pre-incubation of the peptides with protease for 1 h at room temperature

| Compound | Ki (trypsin [1]) [nM] | remaining in simulated gastric fluid [2] [%] | Ki (trypsin [3]) [nM] |
| --- | --- | --- | --- |
| CC[C@H](C)[C@@H]1NC(=O)[C@H](CCCNC(=N)N)NC(=O)[C@@H]2CCCN2C(=O)[C@@H](NC(=O)CNC(=O)[C@H](CO)NC(=O)CN)CSSC[C@@H]2NC(=O)CNC(=O)[C@H](C)NC(=O)[C@H](CC(C)C)NC(=O)[C@@H]3CSSC[C@@H](C(=O)NCC(=O)NCC(=O)N[C@@H](CC(N)=O)C(=O)N[C@@H](CO)C(=O)O)NC(=O)[C@H](Cc4ccccc4)NC(=O)CNC(=O)[C@H](CC(N)=O)NC(=O)[C@@H]4CCCN4C(=O)CNC(=O)[C@H](CSSC[C@H](NC(=O)[C@H](CCCNC(=N)N)NC(=O)[C@H](CCSC)NC(=O)[C@H](CC(C)C)NC1=O)C(=O)N[C@@H](CCCCN)C(=O)N[C@@H](CCC(N)=O)C(=O)N[C@@H](CC(=O)O)C(=O)N[C@@H](CO)C(=O)N[C@@H](CC(=O)O)C(=O)N3)NC(=O)[C@H](C(C)C)NC2=O [rEETI-II] | 0.16 ± 0.01 | 50 |  |
| Alexa488-labeled recombinant EETI-II (peptide) |  |  | 0.71 |
| recombinant EETI-II (Ecballium elaterium trypsin inhibitor II) (peptide) |  |  | 0.16 |
